Test results taken from patent publication US20160176769A1, “PARTICULATE NITRIFICATION INHIBITOR SYSTEMS” (Ballance Agri-Nutrients Limited, priority 2008, published 2016).

System: nitrification in soil
Assay: closed soil incubation experiment (nitrate and ammonium analyses of incubated soil)
Settings: urea approx. 200 kg N/ha, Horotiu silt loam, 20°C
Method: A closed soil incubation experiment was established with the three compositions or products. The beat treated DCD was added at 10 kg/ha and the DCD/P fertiliser blends were added at 10 kg DCD/ha equivalent.
A control (urea only) and 2 DCD rates (10 kg DCD/ha and 1 kg DCD/ha) were included. Ten kg/ha is a standard rate of DCD application and matches the DCD/P fertiliser rate while 1 kg/ha matches the DCD rate applied in the heat treated product which was 10% W /W DCD. All treatments received urea solution at approximately 200 kg N/ha, and were replicated three times.
The soil was a Horotiu silt loam (Yellow Brown Loam) collected to a depth of approximately 100 mm from a site on the Ruakuta farm. The soil was sieved through a 4 mm sieve and stored at 4 ° C. overnight. Sub-samples were taken to determine the moisture content, soil water holding capacity and initial inorganic N concentration. To measure moisture content, subsamples were dried at 105° C. for 24 hours.
Stock solutions of urea, DCD and heated treated DCD were prepared. The compositions were diluted in water to aid dispersion through the soil and the more accurate addition of small amounts of material. The DCD/fertiliser blends however were weighed and applied dry as the material was largely insoluble.
Each replicated treatment was added to 150 g of dry soil equivalent (195 g field moist soil) in a resealable plastic bag. Distilled water was added as necessary to increase the soil moisture to around 60% of water holding capacity. The contents of each bag were mixed thoroughly, and the bags sealed to include as much air as possible to ensure an aerobic environment was maintained. The bags were placed in an incubator set at 20°C. for the duration of the experiment (14 days).
Soil sub-samples were taken from the bags at 2, 5, 9 and 14 days after incubation commenced for ammonium and nitrate analysis. The equivalent of approximately 5 g dry weight of soil was weighed into 150 mL flasks, 50 mL of 2 M potassium chloride (KCl) was added and the flasks shaken for one hour using end-over-end shakers (Mulvaney, 1996). The extractant was filtered (Whatman #42 filter paper) before being frozen prior to analysis for nitrate-N and ammoniumn-N using a Skalar segmented flow analyser. The data were statistically analysed using the ANOVA directive of GenStat (10th Edition) and L.S.D. (least significant difference) were calculated.

[1] = Day 2, applied at 10 kg/ha (blends 10 kg DCD/ha equivalent)
[2] = Day 5, applied at 10 kg/ha (blends 10 kg DCD/ha equivalent)
[3] = Day 9, applied at 10 kg/ha (blends 10 kg DCD/ha equivalent)
[4] = Day 14, applied at 10 kg/ha (blends 10 kg DCD/ha equivalent)

N#CN=C(N)N [DCD, dicyandiamide]
Average ammonium concentration in soil (Day 2, applied at 1 kg/ha): 149.7 μg NH4—N/g soil
Average nitrate concentration in soil (Day 2, applied at 1 kg/ha): 55.8 μg NO3—N/g soil
Average ammonium concentration in soil [1]: 159.7 μg NH4—N/g soil
Average nitrate concentration in soil [1]: 48.1 μg NO3—N/g soil
Average ammonium concentration in soil (Day 5, applied at 1 kg/ha): 81.6 μg NH4—N/g soil
Average nitrate concentration in soil (Day 5, applied at 1 kg/ha): 139.4 μg NO3—N/g soil
Average ammonium concentration in soil [2]: 106.2 μg NH4—N/g soil
Average nitrate concentration in soil [2]: 108.7 μg NO3—N/g soil
Average ammonium concentration in soil (Day 9, applied at 1 kg/ha): 23.2 μg NH4—N/g soil
Average nitrate concentration in soil (Day 9, applied at 1 kg/ha): 193.7 μg NO3—N/g soil
Average ammonium concentration in soil [3]: 63.1 μg NH4—N/g soil
Average nitrate concentration in soil [3]: 148.1 μg NO3—N/g soil
Average ammonium concentration in soil (Day 14, applied at 1 kg/ha): 1.3 μg NH4—N/g soil
Average nitrate concentration in soil (Day 14, applied at 1 kg/ha): 233.8 μg NO3—N/g soil
Average ammonium concentration in soil [4]: 22.1 μg NH4—N/g soil
Average nitrate concentration in soil [4]: 216.6 μg NO3—N/g soil
